For series [1], the system named is Orobanche cumana Wallr. seeds (race F; seed lots IN146 and IN153). Description: Germination of preconditioned Orobanche cumana seeds on glass fiber filter paper in petri dishes. It counts as in vivo. To be noted: mean, N = 5 × 100 seeds, re-transformed data; for Germination (%): seed lot IN146 raceF, examined 10 days later. Here is the method:
The effect of compounds of formula (I) on germination of Orobanche cumana Wallr. seeds was evaluated on glass fiber filter paper (GFFP) in petri dishes. Seeds were preconditioned at moisture and suitable temperature to become responsive to the specific chemical germination stimulants.
Test compounds were dissolved in DMSO (10 000 mg 1^−1) and stored at room temperature in a desiccators with desiccants. The stock solutions were dissolved with deionised water to the appropriate final test concentration.
Seeds of O. cumana race ‘F’ were collected from sunflower fields in Manzanilla (Seville, Spain) in 2006 (seed lot IN146) and 2008 (seed lot IN153) and stored at room temperature. To separate seeds from heavy organic debris, a modified sucrose floatation technique as described by Hartman & Tanimonure (Plant Disease (1991), 75, p. 494) was applied. Seeds were filled into a separation funnel and stirred in water. When seeds floated to the surface, the water fraction containing heavy debris was discarded. Seeds were re-suspended in 2.5M sucrose solution (specific gravity of 1.20) and heavy debris was allowed to settle down for 60 min. After removing debris, seeds were disinfected in 1% sodium hypochlorite solution and 0.025% (v/v) Tween 20 for 2 min. The seeds were decanted onto two layers of cheesecloth, rinsed with sterile deionised water and re-suspended in sterile deionised water. Two ml of the seed suspension containing approximately 150-400 seeds were spread evenly on two layers of sterile glass fiber filter paper disc ([…]) in Petri dishes (Ø9 cm). After wetting the discs with 3 ml sterile deionised water, petri dishes were sealed with parafilm. Seeds were incubated for 10 days at 20° C. in the dark for seed conditioning. The upper disc with conditioned seeds was briefly dried, transferred to a petri dish lined with a dry GFFP disc, and wetted with 6 ml of the appropriate test solution. The compounds of formula (I) were tested at concentrations of 0.001, 0.01, and 0.1 mg 1^−1. The strigolactone analogue GR24 (commercially available as a mixture of isomers) was included as positive control and 0.001% DMSO as negative control. All treatments were tested in five replicates. Seeds were re-incubated at 20° C. in the dark and examined for germination 10 days later. The radicles of germinated seeds were stained for 5 min with blue ink (MIGROS, Switzerland) in 5% acetic acid according to Long et al. (Seed Science Research (2008), 18, p. 125). After staining, seeds were scanned using a flatbed scanner with an optical resolution of 1200 dpi (PULSTEK, OpticPro ST28) or photographed using a camera stand mounted with a digital SLR camera (Canon EOS 5D). Germination of 100 seeds per replicate was evaluated on digital images. Seeds were considered germinated when the radicle protruded from the seed coat. SAS statistical software package version 9.1 was used for analysis of variance (GLM procedure) and multiple comparisons of treatment means (Sidak t-test) based on arcsine transformed percentage germination data.

[2] abbreviates: Table 7, seed lot IN153, race F, 0.001 mg l^−1.
[3] abbreviates: Table 7, seed lot IN153, race F, 0.01 mg l^−1.
Setting [4] is: Table 7, seed lot IN153, race F, 0.1 mg l^−1.
[5] abbreviates: Table 8, seed lot IN153, race F, 0.001 mg l^−1.
[6] abbreviates: Table 8, seed lot IN153, race F, 0.01 mg l^−1.
The mark [7] stands for this setting: Table 8, seed lot IN153, race F, 0.1 mg l^−1.

For `CC1=CC(O/C=C2/C(=O)N(C)C3c4ccccc4C[C@H]23)OC1=O` (stereo in doubt) [Compound P3, 1-Methyl-(3aR*,8bS*,5′R*)-3-[1-(4-Methyl-5-oxo-2,5-dihydro-furan-2-yloxy)-meth-(E)-ylidene]-3,3a,4,8b-tetrahydro-1H-indeno[1,2-b]pyrrol-2-one], the melting point is 130 to 135 °C. For the same compound, the “Germination (%)” value in series [1] (0.001 mg l^−1) came out at 68%. Besides, the “Germination (%)” value in series [1] (0.01 mg l^−1) is listed as 82.4%. For the same compound, the “Germination (%)” value in series [1] (0.1 mg l^−1) was 84%.
Consider `CC1=CC(OC=C2C(=O)N(c3ccc(Cl)cc3)C3c4ccccc4CC23)OC1=O` (stereo not shown) [Compound A18], for which the “Germination % at concentration of 0.001 mg l^−1” value (“Germination % … of 0.001 mg l^−1” below) in series [1] (setting [2]) came to 89.8 ab %. In series [1] (setting [3]), the “Germination % at concentration of 0.01 mg l^−1” value (from here on “Germination % … of 0.01 mg l^−1”) was determined as 99.1 a %. In addition, in series [1] (setting [4]), the “Germination % at concentration of 0.1 mg l^−1” value (from here on “Germination % … of 0.1 mg l^−1”) worked out at 99.1 a %.
For `COc1ccc(N2C(=O)C(=COC3C=C(C)C(=O)O3)C3Cc4ccccc4C32)cc1` (stereo not shown) [Compound A20], the “Germination % … of 0.001 mg l^−1” value in series [1] (setting [2]) stood at 2.0 c %. Also, the “Germination % … of 0.01 mg l^−1” value in series [1] (setting [3]) is 14.4 c %. The “Germination % … of 0.1 mg l^−1” value in series [1] (setting [4]) stood at 89.3 ab %.
Turning to `CCOC(=O)N1C(=O)C(=COC2C=C(C)C(=O)O2)C2Cc3ccccc3C21` (stereo not shown) [Compound A21], the “Germination % … of 0.001 mg l^−1” value in series [1] (setting [5]) was 83.7 abcde %. The “Germination % … of 0.01 mg l^−1” value in series [1] (setting [6]) was found to be 93.4 abc %. For the same compound, the “Germination % … of 0.1 mg l^−1” value in series [1] (setting [7]) is recorded as 96.7 a %.
As for `CC(=O)N1C(=O)C(=COC2C=C(C)C(=O)O2)C2Cc3ccccc3C21` (stereo not shown) [Compound A22], in series [1] (setting [5]), the “Germination % … of 0.001 mg l^−1” value stood at 87.6 abc %. Moreover, the “Germination % … of 0.01 mg l^−1” value in series [1] (setting [6]) turned out to be 95.3 ab %. Also, the “Germination % … of 0.1 mg l^−1” value in series [1] (setting [7]) worked out at 95.7 ab %.
For `CC1=CC(OC=C2C(=O)N(c3nccs3)C3c4ccccc4CC23)OC1=O` (stereo not shown) [Compound A26] the same measures were 93.9 abc %, 95.4 ab % and 93.9 abc %.
`CC1=C[C@H](O/C=C2/C(=O)O[C@@H]3c4ccccc4C[C@H]23)OC1=O` [GR24, reference compound]: the “Germination (%)” value in series [1] (0.001 mg l^−1) is reported as 25.9%; in series [1] (0.01 mg l^−1), 44.9%; in series [1] (0.1 mg l^−1), 59.8%.
For the compound GR-24, the “Germination % … of 0.001 mg l^−1” value came to 21.2 de % in series [1] (Table 5, seed lot IN146, race F, 0.001 mg l^−1); 17.5 d % in series [1] (Table 6, seed lot IN146, race F, 0.001 mg l^−1); 89.5 ab % in series [1] (setting [2]); 84.1 abcde % in series [1] (setting [5]). The “Germination % … of 0.01 mg l^−1” value in series [1] (Table 5, seed lot IN146, race F, 0.01 mg l^−1) turned out to be 33.3 cd %; in series [1] (Table 6, seed lot IN146, race F, 0.01 mg l^−1), 61.4 c %; in series [1] (setting [3]), 97.2 a %; in series [1] (setting [6]) it was 94.1 abc %. Also, the “Germination % … of 0.1 mg l^−1” value in series [1] (Table 5, seed lot IN146, race F, 0.1 mg l^−1) stood at 45.9 bcd %; in series [1] (Table 6, seed lot IN146, race F, 0.1 mg l^−1), 86.6 ab %; in series [1] (setting [4]) it was 96.2 ab %; in series [1] (setting [7]) it was 97.0 a %.

The values are drawn from patent US8946280B2, “Plant growth regulating compounds” (Syngenta Participations AG, priority 2010, dated 2015).
